The values below come from US20260274857A1, “CRYSTAL OF DIHYDROPYRIDINONE DERIVATIVE OR SOLVATE THEREOF” (Shionogi & Co., Ltd., priority 2022, published 2026).

Common to all, as to type: physicochemical
The nature of data set [1]: Powder solubility test (JP-1, JP-2, TCA/JP2). Conditions: 37° C., 1 hour; for JP1 solubility: JP-1 solution; for TCA/JP2 solubility: JP-2 solution added with taurocholic acid; for JP2 solubility: JP-2 solution. As for the experimental part:
The solubility of the crystal of the present invention was evaluated with respect to the solubility when JP-1 solution, JP-2 solution, and JP-2 solution added with taurocholic acid (TCA/JP2) were used as a measurement medium. Evaluation was performed at a dissolved concentration (μg/mL) by an HPLC method.
About 1 mg of the crystal of the present invention was weighed in a 4 mL glass container, and 2 mL of JP-2 solution (1000 mL of water was added to 1.70 g of potassium dihydrogen phosphate and 1.775 g of anhydrous disodium hydrogen phosphate) was added to each container. The mixture was sealed with a polyethylene stopper with Teflon and silicone packing, shaken at 37° C. for 1 hour, and then filtered, and 400 μL of methanol was added to 800 μL of the filtrate to perform 1.5 fold dilution. Whether there were bubbles and precipitates was confirmed, and the compound of the crystal of the present invention was quantified using HPLC by an absolute calibration curve method to calculate the solubility.

Data set [2] can be described thus: Moisture adsorption/desorption isotherm measurement (DVS). As to conditions: for difference in water content between 0% RH and 95% RH: 25° C. An excerpt:
The moisture adsorption/desorption isotherm measurement is a measurement method for measuring the adsorption and desorption behavior of moisture by measuring a weight change in a solid as a measurement target under each relative humidity condition.
As a basic measurement method, based on the dry weight at 0% RH (relative humidity 0%), the relative humidity is increased every 5% or 10%, and after the weight is stabilized at each relative humidity, the amount of adsorbed water can be determined from the weight increase from the reference value. Similarly, the desorption amount of water can be measured by decreasing the relative humidity every 5% or 10% from 100% RH or 95% RH.
By plotting the value of the weight change at each relative humidity, an adsorption/desorption isotherm can be obtained.
Sorption and desorption of adhesion water and crystal water are affected by particle size, crystallinity, crystal habit, and the like, so that the measurement results may slightly change.
The crystals and amorphous substances obtained in each Example were weighed in an aluminum pan, and allowed to stand at 25° C. and a relative humidity of 0%. The measurement was started after the compound was sufficiently dried and the weight was stabilized, and the weight when the relative humidity changed from 0% to 95% by 5% was recorded. Next, the weight when the relative humidity changed from 95% to 0% by 5% was recorded.
Device: DVS Advantage manufactured by Surface Measurement Systems

Data set [3] is described as follows: Test Example 2: solid stability, 40° C. 89% RH 3 months, amount of analogous substance. The procedure: The crystal and amorphous substance of the compound represented by Formula (I) obtained in Example 1 were stored (40° C., 89% RH 3M) in a hermetically sealed container at 40° C. and a relative humidity of 89% for 3 months, and subjected to a solid stability test to evaluate the amount of an analogous substance.
The crystal or amorphous substance of the compound represented by Formula (I) obtained in Example 1 was dissolved in an acetonitrile aqueous solution (acetonitrile:water=1:1) to prepare a sample solution to be exactly 500 μg/mL.
The purity and the amount of the analogous substance were measured by an area percentage method under the HPLC conditions 1 described in Test Example 1.
The results of the crystal and amorphous substance of the compound represented by Formula (I) obtained in Example 1 are described in the following table. Impurities detected at a retention time (RT, retention time) of 17.527 minutes indicate an increase amount with respect to a standard product.

Data set [4] is described as follows: Solid stability test: storage stability (amount of analogous substance by HPLC, appearance). Conditions: temperature, temperature and humidity conditions, light irradiation; analogous substance by HPLC and appearance. The procedure:
For the solid stability of the crystal of the compound represented by Formula (I) obtained in Example 1 and the crystal of the compound represented by Formula (II) obtained in Example 16, the chemical stability under temperature, temperature and humidity conditions, and light irradiation was evaluated. The proportion (%) of the analogous substance produced by an HPLC method and the change in appearance were evaluated.
About 10 mg of the crystal was accurately weighed in a 2 mL glass container with a polyethylene stopper. After the glass container was closed, the glass container was stored at 40° C. or 60° C. for 2 weeks, 1 month, 2 months, 3 months, or 6 months. A sample stored at 40° C. is referred to as a 40° C. hermetically sealed product, and a sample stored at 60° C. is referred to as a 60° C. hermetically sealed product. In a state where the glass container was opened, the glass container was stored at a relative humidity of 75±5% at 40° C. or a relative humidity of 89±5% for 2 weeks, 1 month, 2 months, 3 months or 6 months, or in the presence of silica gel at 40° C. for 1 month, 2 months, 3 months or 6 months. A sample stored at 40° C. and a relative humidity of 75±5% or 89±5% is referred to as a 40° C. and 75% relative humidity (also referred to as 40±2° C./75±5% RH) or 40° C. and 89% relative humidity (also referred to as 40±2° C./89% RH) stored product, and a sample stored in the presence of silica gel at 40° C. is referred to as a 40° C. stored product. The −40° C. hermetically sealed product was used as a standard product.
The amount of the analogous substance was measured by an area percentage method by the HPLC method under the following conditions.
HPLC Conditions 1 were used for the crystal and amorphous substance of the compound represented by Formula (I) obtained in Example 1, and HPLC conditions 2 were used for the crystal of the compound represented by Formula (II) obtained in Example 16.
• Detector: ultraviolet absorptiometer (measurement wavelength: 260 nm) • Column: YMC-Triart C18 ExRS, S-1.9 μm, 3.0×100 mm • Column temperature: constant temperature at near 40° C. • Mobile phase A: 0.1% formic acid aqueous solution • Mobile phase B: acetonitrile • Flow rate: about 0.6 mL/min • Injection amount: 3 μL • Sample cooler temperature: about 6° C. • Feed of mobile phase: The mixing ratio of mobile phase A and mobile phase B was changed as shown in Table 18 to control concentration gradient.
Column: Cortecs (2.7 μm 3.0×100 mm)
Column temperature: 40° C.
UV detection wavelength: 254 nm

Take `CS(=O)(=O)CC(=O)Nc1c2c(nn1CCCOC(F)(F)F)CC1(CCOc3cc(OCC(F)(F)F)ccc31)NC2=O` (stereo not drawn) [Compound crystal of Formula (II)]: in data set [1], the JP1 solubility was 0.0336 mg/mL, the TCA/JP2 solubility came to 0.0736 mg/mL and the JP2 solubility turned out to be 0.0375 mg/mL.

With `Cc1ccc(-n2nc3c(c2NC(=O)CS(C)(=O)=O)C(=O)N[C@@]2(CCOc4cc(F)cc(F)c42)C3)nc1` [amorphous substance of the compound represented by Formula (], the “difference in water content between 0% RH and 95% RH” value in data set [2] (DVS) is recorded as “about 7.0%”. The “impurities detected at a retention time of 17.527 minutes, increase with respect to standard product (in words)” value in data set [3] is on record as “greatly increased”.

Consider `CS(=O)(=O)CC(=O)Nc1c2c(nn1CCCOC(F)(F)F)C[C@@]1(CCOc3cc(OCC(F)(F)F)ccc31)NC2=O` [crystal of the compound represented by Formula (II) obtained], for which, in data set [2] (DVS, 0% to 95% RH), the “hygroscopicity (in words)” value is on record as “no problem in hygroscopicity”. The “difference in water content between 0% RH and 95% RH” value in data set [2] (DVS) is “about 0.4%”. The “Moisture adsorption amount (%)” value in data set [2] (relative humidity 0.0%) worked out at 0.0000%; in data set [2] (relative humidity 5.0%) it was 0.0149%; in data set [2] (relative humidity 10.0%), 0.0250%; in data set [2] (relative humidity 15.0%), 0.0352%; in data set [2] (relative humidity 20.0%) it was 0.0494%; in data set [2] (relative humidity 25.0%), 0.0623%. The “Moisture adsorption amount (%)” value in data set [2] (relative humidity 30.0%) was 0.0758%; in data set [2] (relative humidity 35.0%), 0.0893%; in data set [2] (relative humidity 40.0%) it was 0.1042%; in data set [2] (relative humidity 45.0%), 0.1204%; in data set [2] (relative humidity 50.0%), 0.1387%; in data set [2] (relative humidity 55.0%), 0.1563%. In addition, the “Moisture adsorption amount (%)” value in data set [2] (relative humidity 60.0%) was 0.1746%; in data set [2] (relative humidity 65.0%), 0.2016%; in data set [2] (relative humidity 70.0%), 0.2334%; in data set [2] (relative humidity 75.0%), 0.2619%; in data set [2] (relative humidity 80.0%), 0.2937%; in data set [2] (relative humidity 85.0%), 0.3268%. Also, the “Moisture adsorption amount (%)” value in data set [2] (relative humidity 90.0%) is 0.3695%; in data set [2] (relative humidity 95.0%), 0.4243%. The “Moisture desorption amount (%)” value was 0.0690% in data set [2] (relative humidity 0.0%); 0.1029% in data set [2] (relative humidity 5.0%); 0.1252% in data set [2] (relative humidity 10.0%); 0.1435% in data set [2] (relative humidity 15.0%); 0.1610% in data set [2] (relative humidity 20.0%); 0.1773% in data set [2] (relative humidity 25.0%). Also, the “Moisture desorption amount (%)” value in data set [2] (relative humidity 30.0%) was determined as 0.1922%; in data set [2] (relative humidity 35.0%), 0.2077%; in data set [2] (relative humidity 40.0%) it was 0.2206%; in data set [2] (relative humidity 45.0%) it was 0.2348%; in data set [2] (relative humidity 50.0%), 0.2497%; in data set [2] (relative humidity 55.0%), 0.2659%. The “Moisture desorption amount (%)” value was determined as 0.2822% in data set [2] (relative humidity 60.0%); 0.3038% in data set [2] (relative humidity 65.0%); 0.3289% in data set [2] (relative humidity 70.0%); 0.3464% in data set [2] (relative humidity 75.0%); 0.3627% in data set [2] (relative humidity 80.0%); 0.3782% in data set [2] (relative humidity 85.0%). In addition, the figures for the “Moisture desorption amount (%)” value in data set [2] (relative humidity 90.0%) and in data set [2] (relative humidity 95.0%) were 0.4013% and 0.4243%, respectively. Moreover, in data set [4], the “solid stability (in words)” value is given as “excellent in solid stability under any conditions”.

`Cc1ccc(-n2nc3c(c2NC(=O)CS(C)(=O)=O)C(=O)NC2(CCOc4cc(F)cc(F)c42)C3)nc1` (stereo not drawn) [Compound crystal of Formula (I)]: in data set [1], the JP1 solubility amounted to 0.0594 mg/mL, the TCA/JP2 solubility was 0.1431 mg/mL and the JP2 solubility came out at 0.0741 mg/mL.
